Data published in patent publication US20060199856A1, “Novel compounds as anti-inflammatory, immunomodulatory and anti-proliferatory agents” (4 SC AG, priority 2001, published 2006).
Where two headings read alike, the source gives them in different places.

How the values were obtained:
Format in all cases: biochemical
[1] = molecular target: T1, recombinant human DHODH (Homo sapiens, UniProt Q02127); assay: Inhibition assay of DHODH activity (human enzyme)
T1 construct: provided by Prof; M. Löffler, Marburg, Germany (gift, not purchased)
Description: (§1) The standard assay mixture contained 50 μM decyclo ubichinone, 100 μM dihydroorotate, 60 μM 2,6-dichloroindophenol, as well as 20 mU DHODH. The volume activity of the recombinant enzyme used was 30 U/ml. Measurements were conducted in 50 mM TrisHCl (150 mM KCl, 0,1% Triton X-100, pH. 8,0) at 30° C. in a final volume of 1 ml. The components were mixed, and the reaction was started by adding dihydroorotate. The course of reaction was followed by spectrophotometrically measuring the decrease in absorption at 600 nm for 2 min.
(§2) Inhibitory studies were conducted in a standard assay with additional variable amounts of inhibitor.
(§3) These investigations were carried out with recombinant human as well as with recombinant murine DHODH provided by Prof. M. Löffler, Marburg, Germany [M. Löffler, Chem. Biol. Interact.

[2] = molecular target: DHODH (Rattus norvegicus, UniProt Q63707); assay: Inhibition assay of DHODH activity (rat enzyme, head printed 'rate')
Description: as §1, §2

[3] = molecular target: T2, recombinant murine DHODH (Mus musculus, UniProt O35435); assay: Inhibition assay of DHODH activity (murine enzyme); conditions: class symbols (in nM)
T2 construct: provided by Prof; M. Löffler, Marburg, Germany (gift, not purchased)
Description: as §1, §2, §3

[4] = recombinant human DHODH, class symbols (in nM), read-out: human IC50-Value
[5] = class symbols (in nM), read-out: rate IC50-Value

DHODH, sequence (Q63707 whole entry): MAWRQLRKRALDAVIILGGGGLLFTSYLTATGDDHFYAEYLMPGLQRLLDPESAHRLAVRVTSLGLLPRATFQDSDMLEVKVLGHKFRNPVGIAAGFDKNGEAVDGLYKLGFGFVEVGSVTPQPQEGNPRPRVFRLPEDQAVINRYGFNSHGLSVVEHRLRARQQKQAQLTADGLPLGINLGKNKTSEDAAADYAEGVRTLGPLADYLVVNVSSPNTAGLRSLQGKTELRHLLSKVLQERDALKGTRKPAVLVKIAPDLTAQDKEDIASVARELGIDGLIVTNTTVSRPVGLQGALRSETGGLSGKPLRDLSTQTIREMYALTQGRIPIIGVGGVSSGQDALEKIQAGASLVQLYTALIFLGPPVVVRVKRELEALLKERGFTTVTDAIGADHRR
T1 sequence (Q02127 whole entry): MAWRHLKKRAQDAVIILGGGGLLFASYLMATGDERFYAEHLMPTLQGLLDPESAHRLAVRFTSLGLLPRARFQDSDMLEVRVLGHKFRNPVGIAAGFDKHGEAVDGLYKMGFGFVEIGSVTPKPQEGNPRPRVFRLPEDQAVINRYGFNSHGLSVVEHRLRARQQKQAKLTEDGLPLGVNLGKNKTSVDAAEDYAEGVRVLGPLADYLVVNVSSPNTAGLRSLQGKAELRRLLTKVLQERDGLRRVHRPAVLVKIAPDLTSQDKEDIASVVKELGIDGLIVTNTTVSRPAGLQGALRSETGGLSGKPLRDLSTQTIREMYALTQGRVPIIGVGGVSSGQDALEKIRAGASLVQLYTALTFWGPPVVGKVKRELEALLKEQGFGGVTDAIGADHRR
T2 sequence (O35435 whole entry): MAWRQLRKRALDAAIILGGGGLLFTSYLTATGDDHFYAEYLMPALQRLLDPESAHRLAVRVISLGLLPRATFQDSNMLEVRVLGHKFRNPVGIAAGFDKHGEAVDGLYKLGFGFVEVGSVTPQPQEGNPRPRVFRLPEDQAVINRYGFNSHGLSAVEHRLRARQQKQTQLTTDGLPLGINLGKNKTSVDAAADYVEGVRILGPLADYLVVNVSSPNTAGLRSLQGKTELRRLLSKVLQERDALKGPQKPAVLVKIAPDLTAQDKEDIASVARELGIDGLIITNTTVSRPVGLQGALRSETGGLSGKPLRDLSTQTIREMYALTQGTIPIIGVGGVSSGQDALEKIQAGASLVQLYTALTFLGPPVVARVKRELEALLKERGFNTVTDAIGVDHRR

Compound	IC50 [1, 4]	IC50 [2, 5]	also measured
COc1cccc(-c2ccc(NC(=O)C3=C(C(=O)O)CCC3)c(OC)c2)c1 [Compound 39]	< 800 nM		
O=C(O)C1=C(C(=O)Nc2ccc(-c3ccccc3Cl)cc2)CSC1 [Compound 41]	< 800 nM	> 1500 nM	
Cc1cccc(Sc2ccc(NC(=O)C3=C(C(=O)O)CCC3)cc2)c1 [Compound 42]	< 800 nM	< 800 nM	
O=C(O)C1=C(C(=O)Nc2ccc(-c3cccc(OC(F)(F)F)c3)cc2)CCC1 [Compound 43]	< 800 nM		
O=C(O)C1=C(C(=O)Nc2ccc(-c3cc4ccccc4s3)cc2)CCC1 [Compound 44]	< 800 nM		
O=C(O)C1=C(C(=O)Nc2ccc(-c3cc4ccccc4s3)cc2F)CCC1 [Compound 45]	< 800 nM		
CCOc1cccc(-c2ccc(NC(=O)C3=C(C(=O)O)CCC3)c(F)c2)c1 [Compound 46]	< 800 nM	> 1500 nM	
COc1cc(-c2ccc(NC(=O)C3=C(C(=O)O)CCC3)c(OC)c2)ccc1NC(=O)C1=C(C(=O)O)CCC1 [Compound 48]	> 1500 nM		
O=C(O)C1=C(C(=O)Nc2ccc(-c3ccccc3)cc2)CS(=O)(=O)C1 [Compound 49]	> 1500 nM		
O=C(O)C1=C(C(=O)Nc2ccc(Oc3ccccc3)cc2)CCC1 [Compound 50]	< 800 nM	< 800 nM	
O=C(O)C1=C(C(=O)Nc2ccc(Oc3ccccc3)cc2)COC1 [Compound 51]	> 1500 nM		
COc1ccccc1-c1ccc(NC(=O)C2=C(C(=O)O)CCC2)c(Cl)c1 [Compound 53]	< 800 nM	800 to 1500 nM	
COc1ccccc1-c1ccc(NC(=O)C2=C(C(=O)O)CCC2)cc1Cl [Compound 54]	< 800 nM	< 800 nM	
COc1ccccc1-c1ccc(NC(=O)C2=C(C(=O)O)CCC2)c(C(F)(F)F)c1 [Compound 55]	> 1500 nM		
COc1ccccc1-c1c(F)c(F)c(NC(=O)C2=C(C(=O)O)CCC2)c(F)c1F [Compound 56]			IC50 [1]: < 800 nM; IC50 [2]: < 800 nM
COc1ccccc1-c1ccc(NC(=O)C2=C(C(=O)O)CCC2)c(C)c1 [Compound 57]	< 800 nM	800 to 1500 nM	
COc1ccccc1-c1cc(Cl)c(NC(=O)C2=C(C(=O)O)CCC2)c(Cl)c1 [Compound 58]	< 800 nM	800 to 1500 nM	

Compound	IC50 [1, 4]	IC50 [2, 5]	also measured
COc1ccc(Oc2ccc(C(F)(F)F)cc2NC(=O)C2=C(C(=O)O)CCC2)cc1 [Compound 59]	> 1500 nM		
O=C(O)C1=C(C(=O)Nc2ccc(Oc3ccc(F)cc3F)cc2)CCC1 [Compound 60]	800 to 1500 nM		
O=C(O)C1=C(C(=O)Nc2ccc(Oc3ccc(Cl)cc3)cc2)CCC1 [Compound 61]	> 1500 nM		
CCOc1ccccc1-c1cc(F)c(NC(=O)C2=C(C(=O)O)CCC2)c(F)c1 [Compound 62]	< 800 nM	< 800 nM	
CCOc1cccc(-c2cc(F)c(NC(=O)C3=C(C(=O)O)CCC3)c(F)c2)c1 [Compound 63]	< 800 nM	< 800 nM	
O=C(O)C1=C(C(=O)Nc2c(F)cc(-c3cccc(OC(F)(F)F)c3)cc2F)CCC1 [Compound 64]	< 800 nM		
O=C(O)C1=C(C(=O)Nc2c(F)cc(-c3ccccc3Cl)cc2F)CCC1 [Compound 65]	< 800 nM		
O=C(O)C1=C(C(=O)Nc2c(F)cc(-c3ccccc3F)cc2F)CCC1 [Compound 66]	< 800 nM		
COc1ccc(-c2cc(F)c(NC(=O)C3=C(C(=O)O)CCC3)c(F)c2)c(OC)c1 [Compound 67]	< 800 nM		
O=C(O)C1=C(C(=O)Nc2ccc(OCc3ccccc3C(F)(F)F)c(Cl)c2)CCC1 [Compound 68]	< 800 nM	> 1500 nM	
O=C(O)C1=C(C(=O)NCCCCc2ccccc2)CCC1 [Compound 70]	> 1500 nM		
O=C(O)C1=C(C(=O)NC2CC2c2ccccc2)CCC1 (stereo not drawn) [Compound 71]	> 1500 nM		
O=C(O)C1=C(C(=O)Nc2ccc(OCc3ccccc3)c(Cl)c2)CCC1 [Compound 72]	< 800 nM		
CN(C(=O)C1=C(C(=O)O)CCC1)c1ccc(-c2ccccc2)cc1 [Compound 73]	> 1500 nM		
O=C(O)C1=C(C(=O)Nc2ccc(OCc3ccccc3F)c(Cl)c2)CCC1 [Compound 74]	< 800 nM		
O=C(O)C1=C(C(=O)Oc2ccc(-c3ccccc3)cc2)CCC1 [Compound 75]	> 1500 nM		
COc1ccccc1-c1ccc(OC(=O)C2=C(C(=O)O)CCC2)c(F)c1 [Compound 76]	< 800 nM	< 800 nM	IC50 [3]: 800 to 1500 nM
